Measurements published in PubChem BioAssay AID743310 (Sanford-Burnham Center for Chemical Genomics, 2014).
Calls of active or inactive are those of the source.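 How the source made its calls: active means IC50 at or below 20 µM; inactive means the rest.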

molecular target: Dual specificity protein phosphatase 3 (Homo sapiens) (UniProt P51452); experiment: DUSP3 enzyme activity inhibitors – biochemical, fluorescence, OMFP substrate, selectivity assay for LMPTP inhibitor project, SAR follow-up (AID 743310); conditions: recombinant VHR, OMFP fluorogenic substrate, 50 min
Sequence (P51452 whole entry, looked up): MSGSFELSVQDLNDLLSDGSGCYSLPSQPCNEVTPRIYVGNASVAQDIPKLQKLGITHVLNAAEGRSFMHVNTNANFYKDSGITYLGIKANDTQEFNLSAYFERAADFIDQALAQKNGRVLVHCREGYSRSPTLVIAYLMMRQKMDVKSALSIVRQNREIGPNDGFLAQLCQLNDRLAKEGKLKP

SMILES | IC50
COc1ccc(-c2cc(NCCCN3CCCCC3)c3ccccc3n2)cc1 | > 80 µM (inactive)
Fc1ccc(-c2cc(NCCCN3CCCCC3)c3ccccc3n2)cc1 | > 80 µM (inactive)
c1ccc(-c2nc(NCCCn3ccnc3)c3ccccc3n2)cc1 | > 80 µM (inactive)
Fc1ccccc1-c1nc(NC2CCCC2)c2ccccc2n1 | > 80 µM (inactive)
CN1CCN(c2nc(-c3ccccc3)nc3ccccc23)CC1 | > 80 µM (inactive)
c1ccc(-c2nc(N3CCCC3)c3ccccc3n2)cc1 | > 80 µM (inactive)
c1ccc(-c2nc(N3CCSCC3)c3ccccc3n2)cc1 | > 80 µM (inactive)
Nc1nc(N)c(Cc2ccc(Cl)cc2Cl)c(N)n1 | > 80 µM (inactive)
Clc1ccccc1-c1cc(NCCCN2CCCCC2)c2ccccc2n1 | > 80 µM (inactive)
c1ccc(-c2nc(NC3CC3)c3ccccc3n2)cc1 | > 80 µM (inactive)
Cc1ccc(-c2nc(NCc3cccnc3)c3ccccc3n2)cc1 | > 80 µM (inactive)
CCCCNc1nc(-c2ccccc2)nc2ccccc12 | > 80 µM (inactive)
CC(C)Nc1nc(-c2ccccc2)nc2ccccc12 | > 80 µM (inactive)
Fc1cccc(-c2cc(NCCCN3CCCCC3)c3ccccc3n2)c1 | > 80 µM (inactive)
c1ccc2c(NCCCN3CCCCC3)cc(-c3ccncc3)nc2c1 | > 80 µM (inactive)
Cc1ccc(-c2nc(NCCN3CCOCC3)c3ccccc3n2)cc1 | > 80 µM (inactive)
c1ccc(-c2nc(N3CCCCC3)c3ccccc3n2)cc1 | > 80 µM (inactive)
c1ccc(-c2nc(NCCCN3CCCCC3)c3ccccc3n2)cc1 | > 80 µM (inactive)
CC(C)OCCCNc1nc(-c2ccccc2)nc2ccccc12 | > 80 µM (inactive)
c1ccc(-c2cc(OCCCN3CCCCC3)c3ccccc3n2)cc1 | > 80 µM (inactive)

SMILES | IC50
Cc1ccc(-c2cc(NCCCN3CCCCC3)c3ccccc3n2)cc1 | > 80 µM (inactive)
c1ccc(-c2nc(NCCN3CCCC3)c3ccccc3n2)cc1 | > 80 µM (inactive)
c1ccc(-c2nc(N3CCCCCC3)c3ccccc3n2)cc1 | > 80 µM (inactive)
Clc1cccc(-c2cc(NCCCN3CCCCC3)c3ccccc3n2)c1 | > 80 µM (inactive)
Cc1cccc(-c2nc(NCCCN3CCOCC3)c3ccccc3n2)c1 | > 80 µM (inactive)
CCN(CC)c1nc(-c2ccccc2)nc2ccccc12 | > 80 µM (inactive)
O=C(OCCNc1nc(-c2ccccc2)nc2ccccc12)c1cccnc1 | > 80 µM (inactive)
c1ccc(-c2nc(NCc3cccnc3)c3ccccc3n2)cc1 | > 80 µM (inactive)
Fc1ccccc1-c1nc(NCCCN2CCOCC2)c2ccccc2n1 | > 80 µM (inactive)
COc1cc2nc(-c3ccccc3)cc(NCCCN3CCCCC3)c2cc1OC | > 80 µM (inactive)
c1ccc(-c2nc(NCCN3CCOCC3)c3ccccc3n2)cc1 | > 80 µM (inactive)
c1ccc(-c2cc(NCCCN3CCCCC3)c3ccccc3n2)cc1 | > 80 µM (inactive)
FC(F)(F)c1cccc(-c2cc(NCCCN3CCCCC3)c3ccccc3n2)c1 | > 80 µM (inactive)
Fc1ccc2nc(-c3ccccc3)cc(NCCCN3CCCCC3)c2c1 | > 80 µM (inactive)
c1ccc(-c2cc(NCCN3CCOCC3)c3ccccc3n2)cc1 | > 80 µM (inactive)
c1ccc(-c2cc(NCCN3CCCC3)c3ccccc3n2)cc1 | > 80 µM (inactive)
CN(C)CCNc1nc(-c2ccccc2)nc2ccccc12 | > 80 µM (inactive)
CC1CCN(c2nc(-c3ccccc3)nc3ccccc23)CC1 | > 80 µM (inactive)
Clc1ccc(-c2cc(NCCCN3CCCCC3)c3ccccc3n2)cc1 | > 80 µM (inactive)
CC(C)CNc1nc(-c2ccccc2)nc2ccccc12 | > 80 µM (inactive)

SMILES | IC50
Cc1c(CCC(=O)O)c(=O)oc2c(C)c(OCc3ccccc3Cl)ccc12 | 5.21 µM
c1ccc(-c2cc(NCCN3CCCCC3)c3ccccc3n2)cc1 | > 80 µM (inactive)
c1ccc(-c2nc(NC3CCCC3)c3ccccc3n2)cc1 | > 80 µM (inactive)
c1ccc(-c2cc(N3CCCCC3)c3ccccc3n2)cc1 | > 80 µM (inactive)
Cc1ccc2nc(-c3ccccc3)cc(NCCCN3CCCCC3)c2c1 | > 80 µM (inactive)
COc1ccccc1CNc1ncnc2ccsc12 | > 80 µM (inactive)
c1ccc(-c2cc(SCCCN3CCCCC3)c3ccccc3n2)cc1 | > 80 µM (inactive)
CCc1nc(N)nc(N)c1-c1ccc(Cl)cc1 | > 80 µM (inactive)
c1ccc(-c2nc(NCCN3CCCCC3)c3ccccc3n2)cc1 | > 80 µM (inactive)
COc1ccccc1-c1cc(NCCCN2CCCCC2)c2ccccc2n1 | > 80 µM (inactive)
c1ccc(-c2cc(NCCCN3CCOCC3)c3ccccc3n2)cc1 | > 80 µM (inactive)
c1ccc(-c2nc(NCCCN3CCOCC3)c3ccccc3n2)cc1 | > 80 µM (inactive)
Brc1ccc2nc(-c3ccccc3)cc(NCCCN3CCCCC3)c2c1 | > 80 µM (inactive)
COc1cccc(-c2cc(NCCCN3CCCCC3)c3ccccc3n2)c1 | > 80 µM (inactive)
O=C(OCCNc1nc(-c2ccccc2)nc2ccccc12)c1ccncc1 | > 80 µM (inactive)
c1ccc(-c2nc(N3CCOCC3)c3ccccc3n2)cc1 | > 80 µM (inactive)
Clc1cccc(Cl)c1Cn1cnc(=NCc2ccco2)c2[nH]cnc21 | > 80 µM (inactive)
c1ccc(-c2nc(NC3CCCCC3)c3ccccc3n2)cc1 | > 80 µM (inactive)
CN(C)CCNc1cc(-c2ccccc2)nc2ccccc12 | > 80 µM (inactive)
